# Structures can show the parent of a compound that is named as a salt.
row,melting point,Structure (SMILES)
1,255 to 265 °C,"CCn1c(C)nc2cc(CN3CC(=O)NS3(=O)=O)ccc21 (as salt: TFA) [Example 11, 5-(1-Ethyl-2-methyl-1H-benzoimidazol-5-ylmethyl)-1,1-dioxo-1-1,2,5-thiadiazolidin-3-one]"
2,> 260 °C,COc1ccc(N2CC(=O)NS2(=O)=O)c(OC)c1.[K]
3,180 °C,"O=C1CN(c2ccc(CC3NC(=O)c4ccccc4NC3=O)cc2O)S(=O)(=O)N1 (centres unmarked) [Example 44, 3-[3-Hydroxy-4-(1,1,4-trioxo-[1,2,5]thiadiazolidin-2-yl)-benzyl]-3,4-dihydro-1H-benzo[1,4]diazepine-2,5-dione]"
4,70 to 90 °C,"Cc1cc(OCC(=O)NCc2ccccc2)ccc1N1CC(=O)NS1(=O)=O [Example 43, N-Benzyl-2-[3-methyl-4-(1,1,4-trioxo-[1,2,5]thiadiazolidin-2-yl)-phenoxy]-acetamide]"
5,70 to 75 °C,"Cc1nc2cc(CN3CC(=O)NS3(=O)=O)ccc2n1CCC(C)C [Example 12, 5-[2-Methyl-1-(3-methyl-butyl)-1H-benzoimidazol-5-ylmethyl]-1,1-dioxo-1-1,2,5-thiadiazolidin-3-one]"
6,101 to 103 °C,"O=C1CN(Cc2cccc(I)c2)S(=O)(=O)N1 [Example 4, 5-(3-Iodobenzyl)-1,1-dioxo-1,2,5-thiadiazolidin-3-one]"
7,197 °C,"CCOC(=O)C(Cc1ccc(CN2CC(=O)NS2(=O)=O)cc1)(NC(C)=O)C(=O)OCC [Example 10-23, 2-Acetylamino-2-[4-(1,1,4-trioxo-1,2,5-thiadiazolidin-2-ylmethyl)-benzyl]-malonic acid diethyl ester]"
8,191 to 193 °C,"O=C1CN(c2ccc(I)cc2)S(=O)(=O)N1 [Example 45, 5-(4-Iodo-phenyl)-1,1-dioxo-1,2,5-thiadiazolidin-3-one]"
